The assay has as its target T1, human Cereblon WT GST-tagged protein (Homo sapiens, UniProt Q96SW2).
T1 construct: purchased CISBIO 64BDCRBNPEH
The assay is described as follows: CRBN binding, HTRF (CEREBLON BINDING kit). Particulars: Table II-2, CRBN binding screening, HTRF; for inhibition at 0.5 µM: read-out: Inhibition rate (%) at 0.5µM; for inhibition at 2 µM: read-out: Inhibition rate (%) at 2 µM. On the procedure: The CEREBLON BINDING kits (specification: 10,000 tests; product number: Catalog # 64BDCRBNPEH; CISBIO company) was used to determine the CRBN binding ability of the compounds to be tested through a HTRF method (homogeneous time-resolved fluorescence). The specific methods are as follows: • 1. […] Then, 2.5 µL of human Cereblon WT GST-tagged protein solution was added to each well. Finally, 5 µL of the thoroughly mixed Thalidomide-Re reagent and GST Eu antibody working solution were added to each of the aforementioned wells. […] The blank control wells were sequentially added with 2.5 µL of diluent #9 (1X) solution, 2.5 µL of binding buffer, and 5 µL of thoroughly mixed Thalidomide-Re reagent and GST Eu antibody working solution. • 4. After sealing and incubating the solutions in the aforementioned wells at room temperature for 3 hours, the […] at emission wavelengths of 620 nm and 665 nm were detected by the HTRF method using a Spark microplate reader (V3.1 SP1).
Background: TR-FRET usually uses a lanthanide donor and a delayed reading to cut background.

This is an account of results in EP4678638A1, “NEW E3 UBIQUITIN LIGASE LIGAND, PROTEIN DEGRADATION AGENT AND USE THEREOF” (priority 2023, dated 2024).

The inhibition is the share of the control response that was lost under treatment.

T1 sequence (Q96SW2 whole entry): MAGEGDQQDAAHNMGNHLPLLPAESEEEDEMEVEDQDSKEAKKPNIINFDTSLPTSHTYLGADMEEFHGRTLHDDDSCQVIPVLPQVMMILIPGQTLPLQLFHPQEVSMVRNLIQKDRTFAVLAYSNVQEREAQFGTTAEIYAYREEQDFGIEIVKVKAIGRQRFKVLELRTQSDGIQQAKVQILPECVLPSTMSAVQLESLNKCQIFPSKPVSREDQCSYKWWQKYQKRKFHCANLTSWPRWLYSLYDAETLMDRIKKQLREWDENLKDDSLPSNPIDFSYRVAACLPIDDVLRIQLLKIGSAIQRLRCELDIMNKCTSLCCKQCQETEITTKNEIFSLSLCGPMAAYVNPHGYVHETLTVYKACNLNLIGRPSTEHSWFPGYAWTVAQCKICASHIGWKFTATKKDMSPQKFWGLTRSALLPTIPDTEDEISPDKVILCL

`CNC(=O)c1ccccc1Nc1cc(Nc2cc(C)c(C3CCN(Cc4ccc(N5CCC(=O)NC5=O)cc4)CC3)cc2OC(C)C)ncc1C(F)(F)F` [GT-07667, 2-((2-((4-(1-(4-(2,4-dioxotetrahydropyrimidin-1(2H)-yl)benzyl)piperidin-4-yl)-2-isopropoxy-5-methylphenyl)amino)-5-(trifluoromethyl)pyridin-4-yl)amino)-N-methylbenzamide]: the inhibition at 0.5 µM was 20 to 30% and the inhibition at 2 µM lay within 53 to 60%.
The matching figures for `Cc1ccc(C(=O)Nc2ccc(N3CCC(N(C)Cc4ccc(C5CCC(=O)NC5=O)c(F)c4)CC3)c(C(F)(F)F)c2)cc1C#Cc1cnc2cccnn12` (stereo not drawn) [GT-04107, N-(4-(4-((4-(2,6-dioxopiperidin-3-yl)-3-fluorobenzyl)(methyl)amino)piperidin-1-yl)-3-(trifluoromethyl)phenyl)-3-(imidazo[1,2-b]pyridazin-3-ylethynyl)-4-methylbenzamide]: 30 to 40% and 80 to 100%.
The matching figures for `COc1cc2nn(C3CCN(Cc4cncc(C5CCC(=O)NC5=O)c4)CC3)cc2cc1NC(=O)c1cccc(C(F)(F)F)n1` (stereo not drawn) [GT-07536, N-(2-(1-((5-(2,6-dioxopiperidin-3-yl)pyridin-3-yl)methyl)piperidin-4-yl)-6-methoxy-2H-indazol-5-yl)-6-(trifluoromethyl)picolinamide]: 10 to 20% and 53 to 60%.
For the molecule `CC(C)(O)c1cc2nn(C3CCN(Cc4ccc(C5CCC(=O)NC5=O)cn4)CC3)cc2cc1NC(=O)c1cccc(C(F)(F)F)n1` (stereo not drawn) [GT-07541, N-(2-(1-((5-(2,6-dioxopiperidin-3-yl)pyridin-2-yl)methyl)piperidin-4-yl)-6-(2-hydroxypropan-2-yl)-2H-indazol-5-yl)-6-(trifluoromethyl)picolinamide], the inhibition at 0.5 µM lay in the range of 40 to 53% and the inhibition at 2 µM lay within 60 to 80%.
The matching figures for `CNC(=O)c1ccccc1Nc1cc(Nc2cc(C)c(C3CCN(Cc4ccc(N5CCC(=O)NC5=O)cn4)CC3)cc2OC(C)C)ncc1C(F)(F)F` [GT-07669, 2-((2-((4-(1-((5-(2,4-dioxotetrahydropyrimidin-1(2H)-yl)pyridin-2-yl)methyl)piperidin-4-yl)-2-isopropoxy-5-methylphenyl)amino)-5-(trifluoromethyl)pyridin-4-yl)amino)-N-methylbenzamide]: 10 to 20% and 53 to 60%.
For `Cn1cc(-c2cc(S(C)(=O)=O)ccc2OCc2ccc(N3CCC(=O)NC3=O)cc2)c2cc[nH]c2c1=O` [GT-04645, 1-(4-((2-(6-methyl-7-oxo-6,7-dihydro-1H-pyrrolo[2,3-c]pyridin-4-yl)-4-(methylsulfonyl)phenoxy)methyl)phenyl)dihydropyrimidine-2,4(1H,3H)-dione], the inhibition at 0.5 µM fell in the range of 20 to 30% and the inhibition at 2 µM was 53 to 60%.
Regarding `CNC(=O)c1ccccc1Nc1cc(Nc2cc(C)c(C3CCN(Cc4cc(C5CCC(=O)NC5=O)cnc4F)CC3)cc2OC(C)C)ncc1C(F)(F)F` (stereo not drawn) [GT-07675, 2-((2-((4-(1-((5-(2,6-dioxopiperidin-3-yl)-2-fluoropyridin-3-yl)methyl)piperidin-4-yl)-2-isopropoxy-5-methylphenyl)amino)-5-(trifluoromethyl)pyridin-4-yl)amino)-N-methylbenzamide], the inhibition at 0.5 µM lay in the range of 40 to 53% and the inhibition at 2 µM lay in the range of 60 to 80%.
As for `COc1cc2nn(C3CCN(Cc4ccc(C5CCC(=O)NC5=O)cn4)CC3)cc2cc1NC(=O)c1cccc(C(F)(F)F)n1` (stereo not drawn) [GT-07534, N-(2-(1-((5-(2,6-dioxopiperidin-3-yl)pyridin-2-yl)methyl)piperidin-4-yl)-6-methoxy-2H-indazol-5-yl)-6-(trifluoromethyl)picolinamide], the inhibition at 0.5 µM is 10 to 20% and the inhibition at 2 µM fell in the range of 53 to 60%.
The matching figures for `CC(=O)c1c(C)c2cnc(Nc3ccc(N4CCN(Cc5cncc(C6CCC(=O)NC6=O)c5)CC4)cn3)nc2n(C2CCCC2)c1=O` (stereo not drawn) [GT-07485, 3-(5-((4-(6-((6-acetyl-8-cyclopentyl-5-methyl-7-oxo-7,8-dihydropyrido[2,3-d]pyrimidin-2-yl)amino)pyridin-3-yl)piperazin-1-yl)methyl)pyridin-3-yl)piperidine-2,6-dione]: 53 to 60% and 80 to 100%.
Consider `CC(C)(O)c1cc2nn(C3CCN(Cc4cc(N5CCC(=O)NC5=O)cnc4F)CC3)cc2cc1NC(=O)c1cccc(C(F)(F)F)n1` [GT-07783, N-(2-(1-((5-(2,4-dioxotetrahydropyrimidin-1(2H)-yl)-2-fluoropyridin-3-yl)methyl)piperidin-4-yl)-6-(2-hydroxypropan-2-yl)-2H-indazol-5-yl)-6-(trifluoromethyl)picolinamide], for which the inhibition at 0.5 µM is 30 to 40% and the inhibition at 2 µM fell in the range of 60 to 80%.
Turning to `Cn1cc(-c2cc(S(C)(=O)=O)ccc2OCc2ccc(C3CCC(=O)NC3=O)c(F)c2)c2cc[nH]c2c1=O` (stereo not drawn) [GT-04640, 3-(2-fluoro-4-((2-(6-methyl-7-oxo-6,7-dihydro-1H-pyrrolo[2,3-c]pyridin-4-yl)-4-(methylsulfonyl)phenoxy)methyl)phenyl)piperidine-2,6-dione], the inhibition at 0.5 µM lay in the range of 60 to 80% and the inhibition at 2 µM fell in the range of 80 to 100%.
The matching figures for `O=C1CCN(c2cnc(F)c(CN3CCC(n4cc(NC(=O)c5cnn6ccc(N7CCOCC7)nc56)c(C(F)F)n4)CC3)c2)C(=O)N1` [GT-07789, N-(3-(difluoromethyl)-1-(1-((5-(2,4-dioxotetrahydropyrimidin-1(2H)-yl)-2-fluoropyridin-3-yl)methyl)piperidin-4-yl)-1H-pyrazol-4-yl)-5-morpholinopyrazolo[1,5-a]pyrimidine-3-carboxamide]: 20 to 30% and 60 to 80%.
The matching figures for `O=C1CCC(c2cnc(F)c(CN3CCC(n4cc(NC(=O)c5cnn6ccc(N7C[C@H]8C[C@@H]7CO8)nc56)c(C(F)F)n4)CC3)c2)C(=O)N1` (stereo partly drawn) [GT-07775, 5-((1R,4R)-2-oxa-5-azabicyclo[2.2.1]heptan-5-yl)-N-(3-(difluoromethyl)-1-(1-((5-(2,6-dioxopiperidin-3-yl)-2-fluoropyridin-3-yl)methyl)piperidin-4-yl)-1H-pyrazol-4-yl)pyrazolo[1,5-a]pyrimidine-3-carboxamide]: 60 to 80% and 80 to 100%.
As for `CC(C)(O)c1cc2nc(C3CCN(Cc4cc(C5CCC(=O)NC5=O)cnc4F)CC3)sc2cc1NC(=O)c1cccc(C(F)(F)F)n1` (stereo not drawn) [GT-07621, N-(2-(1-((5-(2,6-dioxopiperidin-3-yl)-2-fluoropyridin-3-yl)methyl)piperidin-4-yl)-5-(2-hydroxypropan-2-yl)benzo[d]thiazol-6-yl)-6-(trifluoromethyl)picolinamide], the inhibition at 0.5 µM was 53 to 60% and the inhibition at 2 µM lay within 60 to 80%.
Consider `CC1(C)CCC(c2ccc(Cl)cc2)=C(CN2CCN(c3ccc(C(=O)NS(=O)(=O)c4ccc(N[C@H](CCN5CC6CCC5CN6Cc5cccc(NC6CCC(=O)NC6=O)c5)CSc5ccccc5)c(S(=O)(=O)C(F)(F)F)c4)cc3)CC2)C1` (stereo partly drawn) [GT-07882, 4-(4-((4'-chloro-4,4-dimethyl-3,4,5,6-tetrahydro-[1,1'-biphenyl]-2-yl)methyl)piperazin-1-yl)-N-((4-(((2R)-4-(5-(3-((2,6-dioxopiperidin-3-yl)amino)benzyl)-2,5-diazabicyclo[2.2.2]octan-2-yl)-1-(phenylthio)butan-2-yl)amino)-3-((trifluoromethyl)sulfonyl)phenyl)sulfonyl)benzamide], for which the inhibition at 0.5 µM was in the range of 30 to 40% and the inhibition at 2 µM was in the range of 30 to 40%.
Consider `CN(c1nccnc1CNc1nc(Nc2ccc(N3CCN(Cc4cc(C5CCC(=O)NC5=O)cnc4F)CC3)cc2)ncc1C(F)(F)F)S(C)(=O)=O` (stereo not drawn) [GT-07397, N-(3-(((2-((4-(4-((5-(2,6-dioxopiperidin-3-yl)-2-fluoropyridin-3-yl)methyl)piperazin-1-yl)phenyl)amino)-5-(trifluoromethyl)pyrimidin-4-yl)amino)methyl)pyrazin-2-yl)-N-methylmethanesulfonamide], for which the inhibition at 0.5 µM fell in the range of 30 to 40% and the inhibition at 2 µM fell in the range of 60 to 80%.
The matching figures for `CNC(=O)c1ccccc1Nc1cc(Nc2ccc(N3CCC(N(C)Cc4cc(C5CCC(=O)NC5=O)cnc4F)CC3)cc2OC)ncc1C(F)(F)F` (stereo not drawn) [GT-07656, 2-((2-((4-(4-(((5-(2,6-dioxopiperidin-3-yl)-2-fluoropyridin-3-yl)methyl)(methyl)amino)piperidin-1-yl)-2-methoxyphenyl)amino)-5-(trifluoromethyl)pyridin-4-yl)amino)-N-methylbenzamide]: 20 to 30% and 60 to 80%.
The matching figures for `Cn1cc(-c2cc(S(C)(=O)=O)ccc2OCc2ccc(N3CCC(=O)NC3=O)c(F)c2)c2cc[nH]c2c1=O` [GT-04643, 1-(2-fluoro-4-((2-(6-methyl-7-oxo-6,7-dihydro-1H-pyrrolo[2,3-c]pyridin-4-yl)-4-(methylsulfonyl)phenoxy)methyl)phenyl)dihydropyrimidine-2,4(1H,3H)-dione]: 30 to 40% and 60 to 80%.
